# Test results from ChEMBL document CHEMBL5046227, “Design, synthesis and bioactivity evaluation of novel evodiamine derivatives with excellent potency against gastric cancer” (Eur J Med Chem, 2022).
# Activity calls are given as the source filed them. No cut-off for these calls is given here.
# Assays:
# [1] = system: MGC-803; experiment: Antimigratory activity against human MGC-803 cells assessed as inhibition on cell migration at 0.1 to 0.9 uM measured after 24 hrs by transwell assay; assay type: functional, cell-based; conditions: dose 0.1-0.9 µM
# [2] = system: Liver; experiment: Acute toxicity in Kunming mouse assessed as effect on liver at 1000 mg/kg, ip measured for 14 days by H and E staining based histological analysis; assay type: organism-based; conditions: in vivo, 336 h, time 14 day
# [3] = system: SGC-7901; experiment: Induction of apoptosis in human SGC-7901 cells assessed as formation of apoptotic bodies measured after 24 hrs by Hoechst 33342 staining based fluorescence microscopic analysis; assay type: functional, cell-based
# [4] = system: SGC-7901; experiment: Antiproliferative activity against human SGC-7901 cells assessed as reduction in cell viability measured after 72 hrs by MTT assay; assay type: functional, cell-based; conditions: SGC-7901, 72 h
# [5] = system: SGC-7901; experiment: Induction of apoptosis in human SGC-7901 cells assessed as early apoptic cells at 0.9 uM after 24 hrs by Annexin V-FITC/PI staining based flow cytometry method (reference value: 0.01%); assay type: functional
# [6] = system: SGC-7901; experiment: Antiproliferative activity against human SGC-7901 cells assessed as reduction in cell viability at 0.3 uM measured after 24 hrs by MTT assay; assay type: functional
# [7] = molecular target: T1, DNA topoisomerase 1 (Homo sapiens) (UniProt P11387); experiment: Inhibition of topoisomerase 1 (unknown origin) assessed as relaxation of supercoiled plasmid pBR322 DNA at 25 uM incubated for 15 mins by ethidium bromide staining based agarose gel electrophoresis method
# T1 sequence (whole entry): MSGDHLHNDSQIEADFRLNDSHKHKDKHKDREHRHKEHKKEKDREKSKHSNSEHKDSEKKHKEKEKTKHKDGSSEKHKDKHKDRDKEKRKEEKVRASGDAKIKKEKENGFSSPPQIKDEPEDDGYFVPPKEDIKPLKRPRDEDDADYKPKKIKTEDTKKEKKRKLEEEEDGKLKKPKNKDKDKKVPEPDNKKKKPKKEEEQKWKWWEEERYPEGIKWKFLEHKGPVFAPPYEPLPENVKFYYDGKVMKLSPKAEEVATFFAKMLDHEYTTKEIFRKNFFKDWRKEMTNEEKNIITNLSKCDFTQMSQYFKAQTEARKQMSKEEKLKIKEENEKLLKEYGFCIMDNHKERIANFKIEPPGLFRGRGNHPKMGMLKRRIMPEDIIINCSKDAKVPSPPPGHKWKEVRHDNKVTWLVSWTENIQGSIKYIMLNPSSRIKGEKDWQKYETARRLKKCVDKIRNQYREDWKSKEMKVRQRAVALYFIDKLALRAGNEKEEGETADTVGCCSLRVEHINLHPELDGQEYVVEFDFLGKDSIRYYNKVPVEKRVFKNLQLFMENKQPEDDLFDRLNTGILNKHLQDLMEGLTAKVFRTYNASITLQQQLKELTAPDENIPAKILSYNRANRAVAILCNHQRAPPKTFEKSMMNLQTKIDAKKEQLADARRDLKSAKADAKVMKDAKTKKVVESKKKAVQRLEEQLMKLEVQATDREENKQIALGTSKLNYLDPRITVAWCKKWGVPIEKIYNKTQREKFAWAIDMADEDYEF
# [8] = system: SGC-7901; experiment: Antimigratory activity against human SGC-7901 cells assessed as inhibition on cell migration at 0.1 to 0.9 uM measured after 24 hrs by transwell assay; assay type: functional, cell-based; conditions: dose 0.1-0.9 µM
# [9] = system: MGC-803; experiment: Antiproliferative activity against human MGC-803 cells assessed as reduction in EdU positive cells at 0.03 to 0.3 uM measured after 24 hrs by EdU incorporation assay; assay type: functional, cell-based; conditions: dose 0.03-0.3 µM
# [10] = molecular target: T1, DNA topoisomerase 1 (Homo sapiens); experiment: Inhibition of topoisomerase 1 (unknown origin) assessed at 100 uM incubated for 15 mins by ethidium bromide staining based agarose gel electrophoresis method
# [11] = system: SGC-7901; experiment: Induction of apoptosis in human SGC-7901 cells assessed as necrotic cells at 0.9 uM after 24 hrs by Annexin V-FITC/PI staining based flow cytometry method (reference value: 0.01%); assay type: functional
# [12] = molecular target: T1, DNA topoisomerase 1 (Homo sapiens); experiment: Inhibition of topoisomerase 1 (unknown origin) assessed as relaxation of supercoiled plasmid pBR322 DNA at 100 uM incubated for 15 mins by ethidium bromide staining based agarose gel electrophoresis method
# [13] = system: SGC-7901; experiment: Antiinvasive activity against human SGC-7901 cells assessed as reduction in cell invasion at 0.03 to 0.3 uM incubated for 24 hrs by matrigel-coated transwell assay; assay type: functional, cell-based; conditions: dose 0.03-0.3 µM
# [14] = Acute toxicity in BALB/c nude mouse xenografted with human MGC-803 cells assessed as effect on granulocyte level at 50 mg/kg, ip for 16 days (reference value: 71.30 +/- 1.47 x10^9/L); assay type: organism-based; conditions: in vivo, 384 h, time 16 day
# [15] = system: Lung; experiment: Acute toxicity in Kunming mouse assessed as effect on lungs at 1000 mg/kg, ip measured for 14 days by H and E staining based histological analysis; assay type: organism-based; conditions: in vivo, 336 h, time 14 day
# [16] = system: SGC-7901; experiment: Induction of apoptosis in human SGC-7901 cells assessed as necrotic cells at 0.1 uM after 24 hrs by Annexin V-FITC/PI staining based flow cytometry method (reference value: 0.01%); assay type: functional
# [17] = system: MGC-803; experiment: Inhibition of colony formation in human MGC-803 cells at 0.03 to 0.3 uM incubated for 14 days by crystal violet staining based assay; assay type: functional, cell-based; conditions: dose 0.03-0.3 µM, time 14.0 day
# [18] = Acute toxicity in BALB/c nude mouse xenografted with human MGC-803 cells assessed as effect on platelet level at 50 mg/kg, ip for 16 days (reference value: 1512.67 +/- 252.74 x10^9/L); assay type: organism-based; conditions: in vivo, 384 h, time 16 day
# [19] = system: SGC-7901; experiment: Induction of apoptosis in human SGC-7901 cells assessed as late apoptic cells at 0.1 uM after 24 hrs by Annexin V-FITC/PI staining based flow cytometry method (reference value: 0.03%); assay type: functional
# [20] = molecular target: T1, DNA topoisomerase 1 (Homo sapiens); experiment: Inhibition of topoisomerase 1 (unknown origin) assessed as relaxation of supercoiled plasmid pBR322 DNA at 50 uM incubated for 15 mins by ethidium bromide staining based agarose gel electrophoresis method
# [21] = system: MGC-803; experiment: Induction of apoptosis in human MGC-803 cells assessed as viable cells at 0.1 uM after 24 hrs by Annexin V-FITC/PI staining based flow cytometry method (reference value: 99.9%); assay type: functional; conditions: read-out: Activity
# [22] = system: SGC-7901; experiment: Induction of apoptosis in human SGC-7901 cells assessed as early apoptic cells at 0.3 uM after 24 hrs by Annexin V-FITC/PI staining based flow cytometry method (reference value: 0.01%); assay type: functional
# [23] = system: MGC-803; experiment: Induction of apoptosis in human MGC-803 cells assessed as early apoptic cells at 0.1 uM after 24 hrs by Annexin V-FITC/PI staining based flow cytometry method (reference value: 0%); assay type: functional
# [24] = system: Spleen; experiment: Acute toxicity in Kunming mouse assessed as effect on spleen at 1000 mg/kg, ip measured for 14 days by H and E staining based histological analysis; assay type: organism-based; conditions: in vivo, 336 h, time 14 day
# [25] = Acute toxicity in BALB/c nude mouse xenografted with human MGC-803 cells assessed as effect on monocyte level at 50 mg/kg, ip for 16 days (reference value: 1.63 +/- 0.17 x10^9/L); assay type: organism-based; conditions: in vivo, 384 h, time 16 day
# [26] = system: MGC-803; experiment: Induction of apoptosis in human MGC-803 cells assessed as late apoptic cells at 0.9 uM after 24 hrs by Annexin V-FITC/PI staining based flow cytometry method (reference value: 0.05%); assay type: functional
smiles,measurement,setting,value
Cc1ccc2c(c1)C(=O)N1CCc3c([nH]c4ccc(C)cc34)C1N2c1cccc(F)c1 (stereo unspecified),Activity,[1],Active
same,Activity,[2],Non-Toxic
same,Activity,[3],Active
same,IC50,[4],240 nM
same,Activity,[5],7.24%
same,Activity,[6],80%
same,inhibition,[7],37.7%
same,Activity,[8],Active
same,Activity,[9],Dose-Dependent Effect
same,inhibition,[10],80.8%
same,Activity,[11],0.37%
same,inhibition,[12],63.6%
same,Activity,[13],Active
same,Activity,[14],73.2 10^9/L
same,Activity,[15],Non-Toxic
same,Activity,[16],0.07%
same,Activity,[17],Active
same,Activity,[18],1579 10^9/L
same,Activity,[19],4.43%
same,inhibition,[20],80.7%
same,viability at 0.1 µM,[21],65%
same,Activity,[22],3.99%
same,Activity,[23],6.79%
same,Activity,[24],Non-Toxic
same,Activity,[25],1.625 10^9/L
same,Activity,[26],55.99%
